For orientation: melting point means the temperature of the solid-liquid transition. `CSC(=NCCSCc1[nH]cnc1C)NC#N` yielded a melting point of 148 to 150 °C.
Turning to `O=C1c2ccccc2-c2c(Cl)nc3ccccc3c21`, the melting point fell in the range of 149 to 150 °C.
The result for `CNC1CCC2C3CCc4cc(OC)ccc4C3CCC12C` (centres undefined) reads 136 to 137 °C; that for `CCCCCOc1cc2c(cc1OCc1cccc(C(=O)OC)c1)C(=O)CC2`, 110 to 111 °C; that for `CCCNCC(O)c1ccc(F)cc1` (centres undefined), 58.6 to 78.8 °C.
Compound `CCC(O)c1cc(C(=O)OC)c(NC(C)=O)cc1C(F)(F)F` (centres undefined) yielded a melting point of 120 to 122 °C.
For the compound `CCC1C(=O)N(CC)CCc2cc(Nc3ncc(Cl)c(N[C@@H]4CCCC[C@H]4NS(C)(=O)=O)n3)c(OC)cc21` (some centres undefined), the melting point lay in the range of 126 to 127 °C.
As to `COC(Cn1cncn1)(c1ccc(F)cc1F)C(F)(F)SCCO` (centres undefined), the melting point was in the range of 76 to 79 °C.
Consider `CCOC(=O)c1cnc2ccn(-c3ccncc3)n2c1=O`, for which the melting point fell in the range of 103 to 104 °C.
`C=CCC(NC(=O)c1ccc(OC)cc1)C(=O)OCC` (centres undefined) registered a melting point of 76 to 78 °C.
Compound `Cc1nc(C(F)(F)F)ccc1C(=O)Nc1ccccc1` displayed a melting point of 161 °C.
On to `O=C(c1cc2cc(OCCNC[C@H](O)COc3ccccc3Cl)ccc2o1)N1CCCC1`, for which the melting point was in the range of 89 to 90 °C.
The result for `Nc1ccc(CCC(=O)Nc2ccc(C(=O)c3ccccc3)cc2)cc1[N+](=O)[O-]` reads 72 to 73 °C; that for `O=C1c2ccccc2C(=O)N1OCCN(CCO)CCON1C(=O)c2ccccc2C1=O`, 136 to 138 °C; that for `N#Cc1cc(C2CCCCC2)c(C(=O)O)cn1`, 225 to 230 °C.
On to `O=C1CCC(=O)N1Cc1nc2sc3c(c2c(-c2ccc(Cl)cc2)c1Cl)CCN(Cc1ccccc1)C3`, for which the melting point was 254 to 255 °C.
The result for `CC(C)(C)CNc1nnc(-c2ccccc2)c2ccccc12` reads 216 °C.
The result for `CC1CCC(C(=O)N(C)C)=C2NC=CC(=O)N21` (centres undefined) reads 78 °C; that for `O=C(Nc1ccccc1)C1CCNCC1`, 121 to 127 °C.
`CCC(=O)N=C(Nc1c(Cl)cccc1Cl)SC` displayed a melting point of 165 to 170 °C.
The result for `O=C(Nc1c(Cl)ccc2nc(N3CCNCC3)ccc12)C1(C2CCCCC2)CC1` reads 219 °C; that for `N#Cc1cc2c3ccccc3n(Cc3ccccc3)c2s1`, 130 to 132 °C; that for `COc1ccc(NS(=O)(=O)c2ccc(NC3=C(Cl)C(=O)c4ccccc4C3=O)cc2OC)cc1`, 165 to 167 °C.
The result for `NC(=O)C1(C2c3[nH]c4ccc(Cl)cc4c3CCN2C=O)CCC1` (centres undefined) reads greater than 260 °C.
On to `CCOC(=O)C(C(=O)OCC)c1ccc(NC(=O)c2cc3c(n(CC4CCCCC4)c2=O)CCCCCC3)c(C(F)(F)F)c1`, for which the melting point was in the range of 160 to 162 °C.
The result for `CCC(=O)n1c(=O)oc2ccccc21` reads 88 to 90 °C.
Regarding `O=C(O)c1c(-c2ccccc2)c(=O)[nH]c2cc(Cl)ccc12`, the melting point came out at 258 °C.
`COc1cc(NC(=O)c2ccccc2)c(=O)[nH]c1C` had a melting point of 247 to 248 °C.
On to `CC(C)(C)OC(=O)C1CCC2(CCn3c(cc4ccccc43)C2)C1=O` (centres undefined), for which the melting point lay in the range of 129 to 131 °C.
Consider `COC(=O)C1(NC(=O)OCc2ccccc2)CCC(=O)O1` (centres undefined), for which the melting point came to 134 °C.
The result for `Nc1nc(Nc2ccc(SC3(Cl)C=CC(C(F)(F)F)=CN3)cc2)sc1C(=O)c1ccccc1[N+](=O)[O-]` (centres undefined) reads 150 to 152 °C; that for `CCC(O)(c1ccc(O)cc1)c1ccc(F)cc1` (centres undefined), 125 to 126 °C; that for `CCOC(=O)c1cnc2ccc(C(F)(F)F)cc2c1O`, greater than 260 °C.
The result for `CCSC1CC(=O)CC(SCC)C1(O)c1ccccc1` (centres undefined) reads 49 to 50 °C; that for `CCN(CC)CCC(=O)NC1(c2ccccc2Cl)C(=O)N(S(=O)(=O)c2ccc3c(c2)CCN3C(=O)N(CC)CC)c2ccc(Cl)cc21` (centres undefined), 130 to 133 °C; that for `O=C(O)C1CCCN1S(=O)(=O)c1ccc(-c2ccccc2)cc1` (centres undefined), 133 to 135 °C.
The result for `CC1(C)CN=C2N(C1)c1ccc(Br)cc1C21OCCCO1` reads 151 to 153 °C; that for `COc1ccc(-c2ccc(Cl)cc2)cc1COc1cccc2cc(NS(=O)(=O)C(F)(F)F)ccc12`, 155 to 157 °C; that for `N#CCOc1ccc(Cl)cc1-n1nncc1-c1cccc(C(F)(F)F)c1`, 145 to 146 °C.
Take `N=C(N)Nc1nc(CCCCC(N)=NO)cs1`: the melting point lay in the range of 167 to 168 °C.
The result for `CCNc1cc(OC)c(C(F)(F)F)cc1[N+](=O)[O-]` reads 140 to 142 °C; that for `CN1CCC(=O)C(C(c2ccc(Cl)cc2)c2ccc(Cl)cc2)C1` (centres undefined), 146 to 147 °C.
The compound `Cc1nc(-c2cccc(C(F)(F)F)c2)c2nc(-c3ccccc3)cc-2[nH]1` gave a melting point of 206 to 208 °C.
The result for `CC1CC2=CC(=O)CCC2(C)C2C(=O)CC3(C)C(=O)CCC3C12` (centres undefined) reads 235 to 237 °C.
For the compound `C#CCCCOc1cc(C=O)ccc1OC`, the melting point fell in the range of 73 to 74 °C.
The result for `C[C@H](NC(=O)Cc1ccccc1)C(=O)N[C@@H]1C(=O)Nc2ccccc2O[C@@H]1c1ccccc1` reads 122 to 136 °C; that for `O=C(O)C1CCc2ccccc2N1C(=O)CS` (centres undefined), 85 to 96 °C; that for `OCC1(CO)c2ccccc2C=Cc2ccccc21`, 162 to 163 °C.
The result for `O=C(Cc1ccc(O)cc1)OCCC(c1ccccc1)(c1ccccc1)c1ccccc1` reads 136 to 138 °C; that for `CCCCCCOC(=O)C1=C(C)NN=C(CC)C1c1cccc([N+](=O)[O-])c1` (centres undefined), 92 °C.
The compound `COC(=O)CCCc1cc2cc(Cl)ccc2n1S(=O)(=O)c1ccc2nc(N)oc2c1` displayed a melting point of 238 °C.
The result for `O=c1c2c(Cc3ccc(C(F)(F)F)cc3)n[nH]c2c2cccnc2n1-c1ccccc1` reads 216 to 219 °C; that for `CCOC(=O)C(Cc1c(Cl)cc(OC)cc1Cl)(NC(C)=O)C(=O)OCC`, 154 to 156 °C.
The result for `O=C(O)c1ccc(OCc2ccccc2CCc2ccccc2)cc1` reads 178 to 180 °C.
The result for `CCOC(=O)C(C)(C(=O)OCC)c1cc(=O)n(Cc2ccccc2)c2ccccc12` reads 130 to 131 °C.
For the compound `COc1ccccc1-c1c(=O)[nH]c2cc(Cl)c(Cl)cc2[n+]1[O-]`, the melting point fell in the range of 239 to 241 °C.
For the compound `CCOc1ccc2c3c([nH]c2c1)CC(NC(C)=O)CC3` (centres undefined), the melting point is 184 to 186 °C.
The result for `CCCOc1ccc(Br)cc1-c1nc2cc3nc[nH]c3cc2c(=O)[nH]1` reads 154 to 155 °C; that for `Cc1nc(-c2ccccc2)nc(-c2cccc([N+](=O)[O-])c2)c1C(=O)NCCCl`, 199 to 200 °C.
The result for `CC(=O)NC[C@H]1CN(c2ccc(N3CCC(n4cc(C(F)F)nn4)CC3)c(F)c2)C(=O)O1` reads 186 to 188 °C; that for `CCOC(Cc1ccc(OCCn2c(CC)nc(-c3ccccc3)cc2=O)cc1)C(=O)O` (centres undefined), 140 to 142 °C.
The result for `CC(C)CCNC(=O)c1ccccc1-c1ccccc1CNS(=O)(=O)c1ccccc1` reads 127 °C; that for `NS(=O)(=O)c1ccccc1C=CC(F)(F)F`, 153 to 154 °C.
For `O=c1[nH]c(-c2ccc(CCCCN3CCN(c4nsc5ccccc45)CC3)cc2)cs1`, the melting point is 140 to 145 °C.
For the compound `Cc1cc(C)nc(Oc2ccc([N+](=O)[O-])cc2)n1`, the melting point fell in the range of 108 to 110 °C.
The compound `CCNC(=S)N1CCN(c2ccc3ccccc3n2)CC1` had a melting point of 193 to 195 °C.
The result for `CC1=C(C(=O)O)OCCO1` reads 103 to 105 °C.
`CC(C)C(=O)NCC(C)(C)N` had a melting point of 134 to 138 °C.
The result for `N#Cc1cccnc1N1CCN(CC(=O)Nc2ccc(F)c(Cl)c2)CC1` reads 137 to 140 °C; that for `O=CC12CC(c3ccccc31)c1ccccc12`, 102 °C; that for `Cn1cc(C2=C(c3cn(CO)c4ccccc34)C(=O)NC2=O)c2ccc([N+](=O)[O-])cc21`, 210 to 213 °C.
The result for `Cn1c(C(F)(F)F)cc(=O)n(-c2ccc3snc(C4OCC5(CO4)CO5)c3c2)c1=O` (centres undefined) reads 203 to 206 °C.
The result for `COc1ccc(-n2nc(Sc3cccc(C)c3)c(C)c(C#N)c2=O)cc1` reads 121 to 122 °C; that for `CCOC(=O)c1ccc(/C=C(\C)c2ccc3c(c2)C(C)(C)CCO3)cc1`, 86 to 87 °C; that for `COc1ccc2cccc(/C(CNC(C)=O)=N/O)c2c1`, 136 to 138 °C.
Consider `CCN(CC)S(=O)(=O)c1cc(O)c(N=Nc2c(C)nn(CC)c2O)c2ccccc12`, for which the melting point is 174 to 175 °C.
For `O=c1c(Cc2ccccc2)c2n(c(=O)n1Cc1ccccc1)CCCS2`, the melting point is 110 to 112 °C.
Compound `CNc1cc(CC(C#N)=CNc2ccccc2)cc(N(C)C)c1Cl` had a melting point of 173 to 174 °C.
The result for `CCOC(=O)c1cn(C2CC2)c2c(F)c(Br)c(F)c(F)c2c1=O` reads 187 to 189 °C.
The result for `O=C1C=CC(OC(=O)c2ccc([N+](=O)[O-])cc2)(c2nc3ccccc3s2)C=C1` reads 138 °C; that for `COC1=NS(=O)(=O)N(C)C(Cl)=N1`, 77 to 83 °C; that for `O=C(Cl)c1ccc(OC(=O)c2cccc(C(=O)Oc3ccc(C(=O)Cl)cc3)c2)cc1`, 204 °C.
The result for `COc1cc2cc(C(=O)C(C)CC#N)sc2cc1OC` (centres undefined) reads 148 to 150 °C; that for `O=C1c2ccc(OC3CCCCC3)cc2CCC1CN1CCC(O)(c2ccccc2)CC1` (centres undefined), 175 to 177 °C; that for `CCOC(=O)COc1cc(O)c(C(=O)CN2Cc3cc(C(N)=S)ccc3C2=O)cc1OCC(=O)OCC`, 142 to 143 °C.
Regarding `O=C1N(Cc2ncccc2F)c2ccccc2C12COc1cc3c(cc12)OCCO3` (centres undefined), the melting point lay in the range of 125 to 126 °C.
The result for `COc1cc(C)c(C(=O)c2c(Cl)cccc2Cl)cc1OCC1CC1` reads 152 °C.
The result for `COc1cc(OC)c(/C=C/S(=O)(=O)Cc2cnc(OC)c([N+](=O)[O-])c2)c(OC)c1` reads 183 to 186 °C.
For the compound `Cc1cccc(C(=O)NNC(=O)c2ccccc2Cc2ccccc2)c1`, the melting point was 149 to 150 °C.

Source of the values: a melting point compilation (Tetko et al.; mined from patent text by program, amines drawn as free bases though some values may be those of a salt).
